# Experimental data published in patent US9556200B2, “Tricyclic compound” (TAKEDA PHARMACEUTICAL COMPANY LIMITED, priority 2012, dated 2017).
# Structures can show the parent of a compound that is named as a salt.
# Target: serotonin 5-HT2C receptor (VSV type isoform, stably expressed in CHO cells) (Homo sapiens, UniProt P28335, I156V/I160V/N158S)
# Assay: cell-based
# Conditions: read-out: ratio (%) relative to maximum response by 5-HT (10 μM)
# Chain of serotonin 5-HT2C receptor (VSV type isoform, stably expressed in CHO cells) (P28335 33-458 I156V/N158S/I160V limits assumed): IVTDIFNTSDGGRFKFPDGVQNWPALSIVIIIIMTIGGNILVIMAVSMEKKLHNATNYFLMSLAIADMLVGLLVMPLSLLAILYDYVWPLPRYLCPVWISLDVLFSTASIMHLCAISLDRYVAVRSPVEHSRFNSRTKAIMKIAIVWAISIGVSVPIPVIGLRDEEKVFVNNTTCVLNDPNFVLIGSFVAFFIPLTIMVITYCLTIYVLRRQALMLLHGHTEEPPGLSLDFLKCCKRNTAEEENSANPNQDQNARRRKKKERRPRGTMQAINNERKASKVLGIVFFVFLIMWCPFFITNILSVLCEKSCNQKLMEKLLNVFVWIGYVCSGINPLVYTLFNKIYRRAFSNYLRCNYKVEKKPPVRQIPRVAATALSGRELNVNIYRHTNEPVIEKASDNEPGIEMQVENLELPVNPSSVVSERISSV
SMILES,Emax,Emax at 10 µM
"Clc1ccc2c3c1NCC3CNCC2 (centres unmarked) [Example 26, 9-chloro-2,2a,3,4,5,6-hexahydro-1H-azepino[3,4,5-cd]indole]",98%,
"c1cc2c3c(c1)NCC3CNCC2 (centres unmarked) [Example 2, 2,2a,3,4,5,6-hexahydro-1H-azepino[3,4,5-cd]indole dihydrochloride]",107%,
"c1cc2c3c(coc3c1)CNCC2 [Example 31, 3,4,5,6-tetrahydrofuro[4,3,2-ef][3]benzazepine hydrochloride]",85%,
"CN1CC2CNCCc3c(Br)ccc1c32 (centres unmarked) [Example 13, 7-bromo-1-methyl-2,2a,3,4,5,6-hexahydro-1H-azepino[3,4,5-cd]indole hydrochloride]",81%,
"CN1CC2CNCCc3c(Cl)ccc1c32 (centres unmarked) [Example 6, 7-chloro-1-methyl-2,2a,3,4,5,6-hexahydro-1H-azepino[3,4,5-cd]indole hydrochloride]",98%,
"c1ccc(CN2CC3CNCCc4cccc2c43)cc1 (centres unmarked) [Example 19, 1-benzyl-2,2a,3,4,5,6-hexahydro-1H-azepino[3,4,5-cd]indole hydrochloride]",96%,
"CC(=O)N1CC2CNCCc3ccc(Cl)c1c32 (centres unmarked) [Example 21, 1-(9-chloro-2,2a,3,4,5,6-hexahydro-1H-azepino[3,4,5-cd]indol-1-yl)ethanone hydrochloride]",109%,
"Clc1ccc2c3c1OCC3CNCC2 (centres unmarked) [Example 33, 9-chloro-2,2a,3,4,5,6-hexahydrofuro[4,3,2-ef][3]benzazepine hydrochloride]",94%,
"O=C(c1ccccc1)N1CC2CNCCc3ccc(Cl)c1c32 (centres unmarked) [Example 37, (9-chloro-2,2a,3,4,5,6-hexahydro-1H-azepino[3,4,5-cd]indol-1-yl)(phenyl)methanone hydrochloride]",95%,
"O=C(c1ccccc1)N1CC2CNCCc3c(Cl)ccc1c32 (centres unmarked) [Example 38, (7-chloro-2,2a,3,4,5,6-hexahydro-1H-azepino[3,4,5-cd]indol-1-yl)(phenyl)methanone hydrochloride]",93%,
"CC(C)C(=O)N1CC2CNCCc3cccc1c32 (centres unmarked) [Example 34, 1-(2,2a,3,4,5,6-hexahydro-1H-azepino[3,4,5-cd]indol-1-yl)-2-methylpropan-1-one hydrochloride]",77%,
"CC(C)N1CC2CNCCc3cccc1c32 (centres unmarked) [Example 15, 1-isopropyl-2,2a,3,4,5,6-hexahydro-1H-azepino[3,4,5-cd]indole hydrochloride]",98%,
"CC(C)C(=O)N1CC2CNCCc3c(Cl)ccc1c32 (centres unmarked) [Example 35, 1-(7-chloro-2,2a,3,4,5,6-hexahydro-1H-azepino[3,4,5-cd]indol-1-yl)-2-methylpropan-1-one hydrochloride]",99%,
"Clc1ccc2c3c1N(C1CC1)C[C@@H]3CNCC2 [Example 30, (2aS)-9-chloro-1-cyclopropyl-2,2a,3,4,5,6-hexahydro-1H-azepino[3,4,5-cd]indole]",94%,
"c1cc2c3c(csc3c1)CNCC2 [Example 41, 3,4,5,6-tetrahydrothieno[4,3,2-ef][3]benzazepine hydrochloride]",91%,
"CC(=O)N1C[C@@H]2CNCCc3ccc(Cl)c1c32 [Example 24, 1-((2aS)-9-chloro-2,2a,3,4,5,6-hexahydro-1H-azepino[3,4,5-cd]indol-1-yl)ethanone hydrochloride]",96%,
"c1cc2c3c(c1)SCC3CNCC2 (centres unmarked) [Example 43, 2,2a,3,4,5,6-hexahydrothieno[4,3,2-ef][3]benzazepine hydrochloride]",107%,
"O=C(c1ccccc1)N1CC2CNCCc3c(Cl)cc(Cl)c1c32 (centres unmarked) [Example 39, 7,9-dichloro-1-(phenylcarbonyl)-2,2a,3,4,5,6-hexahydro-1H-azepino[3,4,5-cd]indole hydrochloride]",93%,
"CCN1C[C@@H]2CNCCc3ccc(Cl)c1c32 [Example 29, (2aS)-9-chloro-1-ethyl-2,2a,3,4,5,6-hexahydro-1H-azepino[3,4,5-cd]indole hydrochloride]",93%,
"Cn1cc2c3c(cccc31)CCNC2 [Example 3, 1-methyl-3,4,5,6-tetrahydro-1H-azepino[3,4,5-cd]indole]",106%,
"O=S1(=O)CC2CNCCc3cccc1c32 (centres unmarked) [Example 42, 2,2a,3,4,5,6-hexahydrothieno[4,3,2-ef][3]benzazepine 1,1-dioxide hydrochloride]",102%,

SMILES,Emax,Emax at 10 µM
"CC(=O)N1CC2CNCCc3c(Cl)ccc1c32 (centres unmarked) [Example 22, 1-(7-chloro-2,2a,3,4,5,6-hexahydro-1H-azepino[3,4,5-cd]indol-1-yl)ethanone hydrochloride]",105%,
"CC(C)N1C[C@H]2CNCCc3ccc(Cl)c1c32 [Example 18, (2aR)-9-chloro-1-isopropyl-2,2a,3,4,5,6-hexahydro-1H-azepino[3,4,5-cd]indole hydrochloride]",105%,
"Cc1ccc2c3c1N(C)CC3CNCC2 (centres unmarked) [Example 10, 1,9-dimethyl-2,2a,3,4,5,6-hexahydro-1H-azepino[3,4,5-cd]indole hydrochloride]",100%,
"CC(=O)N1CC2CNCCc3cccc1c32 (centres unmarked) [Example 20, 1-(2,2a,3,4,5,6-hexahydro-1H-azepino[3,4,5-cd]indol-1-yl)ethanone hydrochloride]",94%,
"CC(C)N1CC2CNCCc3ccc(Cl)c1c32 (centres unmarked) [Example 16, 9-chloro-1-isopropyl-2,2a,3,4,5,6-hexahydro-1H-azepino[3,4,5-cd]indole hydrochloride]",101%,
"CN1CC2CNCCc3ccc(Cl)c1c32 (centres unmarked) [Example 5, 9-chloro-1-methyl-2,2a,3,4,5,6-hexahydro-1H-azepino[3,4,5-cd]indole hydrochloride]",108%,
"CN1CC2CNCCc3cccc1c32 (centres unmarked) [Example 4, 1-methyl-2,2a,3,4,5,6-hexahydro-1H-azepino[3,4,5-cd]indole hydrochloride]",100%,
"CC(=O)N1CC2CNCCc3c(Cl)cc(Cl)c1c32 (centres unmarked) [Example 23, 1-(7,9-dichloro-2,2a,3,4,5,6-hexahydro-1H-azepino[3,4,5-cd]indol-1-yl)ethanone]",100%,
"CC(C)c1ccc2c3c1N(C)CC3CNCC2 (centres unmarked) [Example 40, 9-isopropyl-1-methyl-2,2a,3,4,5,6-hexahydro-1H-azepino[3,4,5-cd]indole]",93%,
"CN1CC2CNCCc3c(Cl)cc(Cl)c1c32 (centres unmarked) [Example 7, 7,9-dichloro-1-methyl-2,2a,3,4,5,6-hexahydro-1H-azepino[3,4,5-cd]indole]",97%,
"Cc1ccc2c3c1N(C)C[C@@H]3CNCC2 [Example 11, (2aS)-1,9-dimethyl-2,2a,3,4,5,6-hexahydro-1H-azepino[3,4,5-cd]indole 0.5 sulfate]",102%,
"Cc1ccc2c3c1N(C)C[C@H]3CNCC2 [Example 12, (2aR)-1,9-dimethyl-2,2a,3,4,5,6-hexahydro-1H-azepino[3,4,5-cd]indole 0.5 sulfate]",102%,
"c1cc2c3c(c[nH]c3c1)CNCC2 [Example 1, 3,4,5,6-tetrahydro-1H-azepino[3,4,5-cd]indole hydrochloride]",104%,
"O=C(c1ccccc1)N1CC2CNCCc3cccc1c32 (centres unmarked) [Example 36, 2,2a,3,4,5,6-hexahydro-1H-azepino[3,4,5-cd]indol-1-yl(phenyl)methanone hydrochloride]",79%,
"CN1CC2CNCCc3c(Br)cc(Br)c1c32 (centres unmarked) [Example 14, 7,9-dibromo-1-methyl-2,2a,3,4,5,6-hexahydro-1H-azepino[3,4,5-cd]indole hydrochloride]",,87%
"CC(=O)N1C[C@H]2CNCCc3ccc(Cl)c1c32 [Example 25, 1-((2aR)-9-chloro-2,2a,3,4,5,6-hexahydro-1H-azepino[3,4,5-cd]indol-1-yl)ethanone hydrochloride]",96%,
"c1cc2c3c(c1)OCC3CNCC2 (centres unmarked) [Example 32, 2,2a,3,4,5,6-hexahydrofuro[4,3,2-ef][3]benzazepine hydrochloride]",97%,
"CN1C[C@H]2CNCCc3ccc(Cl)c1c32 [Example 8, (2aR)-9-chloro-1-methyl-2,2a,3,4,5,6-hexahydro-1H-azepino[3,4,5-cd]indole hydrochloride]",105%,
"CC(C)N1C[C@@H]2CNCCc3ccc(Cl)c1c32 [Example 17, (2aS)-9-chloro-1-isopropyl-2,2a,3,4,5,6-hexahydro-1H-azepino[3,4,5-cd]indole hydrochloride]",99%,
"CN1C[C@@H]2CNCCc3ccc(Cl)c1c32 [Example 9, (2aS)-9-chloro-1-methyl-2,2a,3,4,5,6-hexahydro-1H-azepino[3,4,5-cd]indole hydrochloride]",109%,
